# From patent US8742123B2, “HIV integrase inhibitors from pyridoxine” (TaiMed Biologics, Inc., priority 2008, dated 2014)
# Columns and labels:
# wild type NL-4.3 = assay: multi-cycle infection assay in MT-4 cells (MTT cytoprotection); format: cell-based, HIV-1; details: Human immunodeficiency virus 1, MT4, 144 h; MT-4 cells, wild type NL-4.3, 6 days, MTT; read-out: EC50 (nM) multi-cycle
# Protocol: The antiviral efficacies of the integrase inhibitor compounds of the invention were evaluated based on EC50 measures obtained from two different in vitro HIV infection assay using cultured MT-4 cells: (1) a multi-cycle infection where cells were infected with wild type NL-4.3) and (2) a single-cycle infection where the cells were infected with a luciferase-bearing, envelope defective (env-) NL-4.3 virus pseudotyped with HIV-1 env (HXBc2.
# The incubation period for the multi-cycle infection assay was 6 days. Cell viability (cytoprotection) and EC50 were determined using the colorimetric MTT assay (A. J. Japour et al, Antimicrobial Agents and Chemotherapy, 37, 1095-1101, 1993 and R. Pauwels et al. Journal of Virological Methods, 20, 309-321, 1988).
# [1] = molecular target: T1, recombinant HIV-1 integrase (Human immunodeficiency virus type 1 group M subtype B, UniProt P12497); assay: integrase strand transfer assay; format: biochemical; details: compounds added after assembly, 10% DMSO, read-out: ST IC50
# T1 construct: Recombinant integrase (250 ng/well) was assembled onto the immobilized donor oligonucleotide
# Protocol: IC50 was determined for the compounds of the inventions based on data generated in strand transfer assays. The IC50 is a measure of the ability of the compounds tested to inhibit the integration of 3′-processed oligonucleotides by recombinant HIV-1 integrase.
# Strand transfer assays were performed essentially as described in Hazuda, D. J.; Felock, P.; Hastings, J. C.; Pramanik, B.; Wolfe, A. J. Virol. 1997, 71, 7005-7011). Donor DNA (1.5 pmol/well), biotinylated on the 5′ end of the strand processed by integrase, was immobilized onto streptavidin-coated microtiter plates. Recombinant integrase (250 ng/well) was assembled onto the immobilized donor oligonucleotide in reaction buffer (20 mM Hepes, pH 7.6, 5 mM B-mercaptoethanol, 50 ug/mL bovine serum albumin) containing 30 mM MnCl2. Excess enzyme was removed, and the complexes were washed extensively prior to the addition of the target DNA substrate. The target DNA (0.75 pmoles/well) substrate was labeled on each 3′ end with FITC. After strand transfer, the FITC-labeled products were detected using an anti-FITC antibody conjugated with alkaline phosphatase (Roche) and a chemiluminescent substrate (Tropix CSPD with Sapphire II enhancer, Applied Biosystems). The assay was performed in a final concentration of 10% DMSO. To specifically evaluate inhibition of strand transfer, compounds were added after assembly, just prior to the addition of the target DNA.
# The results of the integrase strand transfer assay are reported as IC50 values. IC50 values were determined using a sigmoidal dose-response equation. The formula used for calculating % inhibition was: % Inhibition=[1-(sample counts/average of positive control)]*100. […] Using GraphPad Prism or ActivityBase (IDBS) software IC50 was determined using following sigmoidal dose-response equation: Y=(A+((B−A)/(1+((C/X)^D))))
# HIV-1 isolate 91US005 = assay: acute infection assay in PHA-stimulated PBMCs, supernatant RT activity; format: cell-based; details: Human immunodeficiency virus 1, PBMC, 144 h, HIV-1 isolate 91US005, 6 day incubation
# Protocol: (§1) Acute infection assays using fresh human phytohemagglutinin (PHA)-stimulated peripheral blood mononuclear cells (PBMCs) were carried out. PBMCs were stimulated with IL-2 and infected with one of two wild-type drug-sensitive clinical HIV-1 isolates. The strains HIV-1 used for the infections, 91US005 (primary R5 strain of HIV-1) and 94US33931N, are both Group M, Subtype B viruses. Antiviral activity was determined as a reduction in supernatent reverse transcriptase (RT) activity after a 6 day incubation.
# HIV-1 isolate 94US33931N = assay: as above; format: cell-based; details: Human immunodeficiency virus 1, PBMC, 144 h, 6 day incubation
# Protocol: as §1
Compound,EC50 (wild type NL-4.3) [nM],other results
"O=C(Nc1cnc(C(=O)NO)c(O)c1CO)c1ccc(F)cc1 [Example 23, 5-(4-Fluoro-benzoylamino)-3-hydroxy-4-hydroxymethyl-pyridine-2-carboxylic Acid Hydroxyamide]",6300,
"O=C(NO)c1ncc(COCc2ccccc2)c(CO)c1O [Example 18, 5-(Benzyloxymethyl)-N,3-dihydroxy-4-(hydroxymethyl)picolinamide]",86,IC50 [1]: 88 nM
"O=C(NCc1ccc(F)c(Cl)c1)c1cnc(C(=O)NO)c(O)c1CO [Example 14, N^5-(3-chloro-4-fluorobenzyl)-N2,3-dihydroxy-4-(hydroxymethyl)pyridine-2,5-dicarboxamide]",123,IC50 [1]: 27 nM
"COc1ccc(COCc2cnc(C(=O)NO)c(O)c2CO)cc1 [Example 17, N,3-Dihydroxy-4-(hydroxymethyl)-5-((4-methoxybenzyloxy)methyl)-picolinamide]",2000,
"COCc1c(C(=O)N(C)Cc2ccc(F)cc2)cnc(C(=O)NO)c1O [Example 12, N^5-(4-fluorobenzyl)-N2,3-dihydroxy-4-(methoxymethyl)-N^5-methylpyridine-2,5-dicarboxamide]",14000,
"O=C(NO)c1ncc(CNCc2ccc3c(c2)OCO3)c(CO)c1O [Example 11, 5-((benzo[d][1,3]dioxol-5-ylmethylamino)methyl)-N,3-dihydroxy-4-(hydroxymethyl)picolinamide]",300,
"O=C(NCc1ccc(Cl)c(Cl)c1)c1cnc(C(=O)NO)c(O)c1CO [Example 16, N^5-(3,4-dichlorobenzyl)-N^2,3-dihydroxy-4-(hydroxymethyl)pyridine-2,5-dicarboxamide]",700,
"Cc1cn([C@H]2C[C@H](N=[N+]=[N-])[C@@H](CO)O2)c(=O)[nH]c1=O [Retrovir (AZT), 3-Azido-3-deoxythymine (Zidovudine), reference compound]",,EC50 (HIV-1 isolate 91US005): 6 nM; EC50 (HIV-1 isolate 94US33931N): 3 nM
"O=C(NO)c1ncc(CCc2ccc(F)cc2)c(CO)c1O [Example 67, 5-[2-(4-Fluoro-phenyl)-ethyl]-3-hydroxy-4-hydroxymethyl-pyridine-2-carboxylic Acid Hydroxyamide]",235,
"O=C(NCc1ccc(F)c(F)c1)c1cnc(C(=O)NO)c(O)c1CO [Example 20, N^5-(3,4-difluorobenzyl)-N^2,3-dihydroxy-4-(hydroxymethyl)pyridine-2,5-dicarboxamide]",30,
O=C(NO)c1ncc(CNCc2ccc(F)cc2)c(CO)c1O [Example 9],1000,
"O=C(NO)c1ncc(CNc2ccc(F)cc2)c(CO)c1O [Example 21, 5-[(4-Fluoro-phenylamino)-methyl]-3-hydroxy-4-hydroxymethyl-pyridine-2-carboxylic Acid Hydroxyamide]",4.3,
"O=C(NO)c1ncc(CN(Cc2ccccc2)c2ccc(F)cc2)c(CO)c1O [Example 25, 5-{[Benzyl-(4-fluoro-phenyl)-amino]-methyl}-3-hydroxy-4-hydroxymethyl-pyridine-2-carboxylic Acid Hydroxyamide]",175,
"O=C(NO)c1ncc(COc2ccc(F)cc2)c(CO)c1O [Example 28, 5-(4-Fluoro-phenoxymethyl)-3-hydroxy-4-hydroxymethyl-pyridine-2-carboxylic Acid Hydroxyamide]",186,
"O=C(Nc1ccc(F)cc1)Nc1cnc(C(=O)NO)c(O)c1CO [Example 27, 5-[3-(4-Fluoro-phenyl)-ureido]-3-hydroxy-4-hydroxymethyl-pyridine-2-carboxylic Acid Hydroxyamide]",1100,
"COc1ccc(COCc2cnc(C(=O)NO)c3c2COC(C)(C)O3)cc1 [Example 19, N-hydroxy-5-((4-methoxybenzyloxy)methyl)-2,2-dimethyl-4H-[1,3]dioxino[4,5-c]pyridine-8-carboxamide]",5060,
"O=C(NO)c1ncc(CNCc2cc(F)cc(F)c2)c(CO)c1O [Example 10, 5-((3,5-difluorobenzylamino)methyl)-N,3-dihydroxy-4-(hydroxymethyl)picolinamide]",> 10000,
"Cc1c(C(=O)NCc2ccc(F)c(Cl)c2)cnc(C(=O)NO)c1O [Example 74, 3-Hydroxy-4-methyl-pyridine-2,5-dicarboxylic Acid 5-(3-chloro-4-fluoro-benzylamide)2-hydroxyamide]",267,
"COc1ccc(CNC(=O)c2cnc(C(=O)NOCc3ccccc3)c(OCc3ccccc3)c2CO)cc1 [Example 5, N^2,3-bis(benzyloxy)-4-(hydroxymethyl)-N^5-(4-methoxybenzyl)pyridine-2,5-dicarboxamide]",900,
"O=C(NCc1ccc(F)c(Cl)c1)c1cnc(C(=O)NOCc2ccccc2)c(OCc2ccccc2)c1CO [Example 13, N^2,3-bis(benzyloxy)-N^5-(3-chloro-4-fluorobenzyl)-4-(hydroxymethyl)pyridine-2,5-dicarboxamide]",> 10000,
"COC(=O)N(Cc1ccc(F)cc1)Cc1cnc(C(=O)NO)c(O)c1CO [Example 65, (4-Fluoro-benzyl)-(5-hydroxy-6-hydroxycarbamoyl-4-hydroxymethyl-pyridin-3-ylmethyl)-carbamic Acid Methyl Ester]",> 10000,
"COc1ccc(CNC(=O)c2cnc(C(=O)NO)c(O)c2CO)cc1 [Example 6, N^2,3-dihydroxy-4-(hydroxymethyl)-N^5-(4-methoxybenzyl)pyridine-2,5-dicarboxamide]",1000,
"O=C(NCc1cc(F)cc(F)c1)c1cnc(C(=O)NO)c(O)c1CO [Example 8, N^5-(3,5-difluorobenzyl)-N^2,3-dihydroxy-4-(hydroxymethyl)pyridine-2,5-dicarboxamide]",> 10000,
"O=C(NCc1ccc2c(c1)OCO2)c1cnc(C(=O)NO)c(O)c1CO [Example 4, N^5-(benzo[d][1,3]dioxol-5-ylmethyl)-N2,3-dihydroxy-4-(hydroxymethyl)pyridine-2,5-dicarboxamide]",> 10000,
"O=C(NCc1ccc(Cl)c(Cl)c1)c1cnc(C(=O)NOCc2ccccc2)c(OCc2ccccc2)c1CO [Example 15, N^2,3-bis(benzyloxy)-N^5-(3,4-dichlorobenzyl)-4-(hydroxymethyl)pyridine-2,5-dicarboxamide]",> 10000,
"O=C(NO)c1ncc(CS(=O)(=O)Cc2ccc(F)cc2)c(CO)c1O [Example 71, 5-(4-Fluoro-phenylmethanesulfonylmethyl)-3-hydroxy-4-hydroxymethyl-pyridine-2-carboxylic Acid Hydroxyamide]",4.3,
"O=C(NCc1cc(F)cc(F)c1)c1cnc(C(=O)NOCc2ccccc2)c(OCc2ccccc2)c1CO [Example 7, N^2,3-bis(benzyloxy)-N^5-(3,5-difluorobenzyl)-4-(hydroxymethyl)pyridine-2,5-dicarboxamide]",1500,
